In PubChem BioAssay AID248 (DTP/NCI, 2004):
Values joined by “and” are separate entries in the source; they are usually repeats but may differ in a detail not shown here. Equal values may be shown once. Toxic doses and inconclusive results are not listed. No stated cut-off is given here; in the data, active means T/C of 150% or more; inactive means T/C below 125%.

Test system: L1210 leukemia ip in BDF1 mice, survival T/C
Assay: NCI In Vivo Anticancer Drug Screen. Data for tumor model L1210 Leukemia (intraperitoneal) in B6D2F1 (BDF1) mice
Settings: endpoint: mean survival time, higher = longer survival
In short: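 Antitumor effect is assessed in tumor-bearing animals. Survival in the compound arm is compared with a vehicle-dosed control arm and expressed as their quotient.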

[1] = dose: 100.0 mg/kg/injection, schedule: Q01DX009 (ip), vehicle: saline with Tween-80
[2] = dose: 100.0 mg/kg/injection, schedule: Q04DX003 (ip), vehicle: saline with Tween-80
[3] = dose: 200.0 mg/kg/injection, schedule: Q01DX009 (ip), vehicle: saline with Tween-80
[4] = dose: 200.0 mg/kg/injection, schedule: Q04DX003 (ip), vehicle: saline with Tween-80
[5] = dose: 400.0 mg/kg/injection, schedule: Q01DX009 (ip), vehicle: saline with Tween-80
[6] = dose: 400.0 mg/kg/injection, schedule: Q04DX003 (ip), vehicle: saline with Tween-80
[7] = dose: 100.0 mg/kg/injection, schedule: Q01DX001 (ip), vehicle: carboxymethylcellulose (CMC)
[8] = dose: 200.0 mg/kg/injection, schedule: Q01DX001 (ip), vehicle: carboxymethylcellulose (CMC)
[9] = dose: 400.0 mg/kg/injection, schedule: Q01DX001 (ip), vehicle: carboxymethylcellulose (CMC)
[10] = dose: 75.0 mg/kg/injection, schedule: Q01DX001 (ip), vehicle: saline
[11] = dose: 150.0 mg/kg/injection, schedule: Q01DX001 (ip), vehicle: saline
[12] = dose: 100.0 mg/kg/injection, schedule: Q01DX009 (ip), vehicle: Klucel (hydroxypropylcellulose) (HPC)
[13] = dose: 100.0 mg/kg/injection, schedule: Q04DX003 (ip), vehicle: Klucel (hydroxypropylcellulose) (HPC)
[14] = dose: 200.0 mg/kg/injection, schedule: Q01DX009 (ip), vehicle: Klucel (hydroxypropylcellulose) (HPC)
[15] = dose: 200.0 mg/kg/injection, schedule: Q04DX003 (ip), vehicle: Klucel (hydroxypropylcellulose) (HPC)
[16] = dose: 400.0 mg/kg/injection, schedule: Q01DX009 (ip), vehicle: Klucel (hydroxypropylcellulose) (HPC)
[17] = dose: 400.0 mg/kg/injection, schedule: Q04DX003 (ip), vehicle: Klucel (hydroxypropylcellulose) (HPC)
[18] = dose: 100.0 mg/kg/injection, schedule: Q01DX001 (ip), vehicle: saline
[19] = dose: 200.0 mg/kg/injection, schedule: Q01DX001 (ip), vehicle: saline
[20] = dose: 400.0 mg/kg/injection, schedule: Q01DX001 (ip), vehicle: saline
[21] = dose: 100.0 mg/kg/injection, schedule: Q04DX003 (ip), vehicle: saline
[22] = dose: 200.0 mg/kg/injection, schedule: Q04DX003 (ip), vehicle: saline
[23] = dose: 400.0 mg/kg/injection, schedule: Q04DX003 (ip), vehicle: saline
[24] = dose: 50.0 mg/kg/injection, schedule: Q01DX009 (ip), vehicle: saline
[25] = dose: 100.0 mg/kg/injection, schedule: Q04DX002 (ip), vehicle: saline with Tween-80
[26] = dose: 200.0 mg/kg/injection, schedule: Q04DX002 (ip), vehicle: saline with Tween-80
[27] = dose: 50.0 mg/kg/injection, schedule: Q01DX001 (ip), vehicle: saline

Measured: T/C

COc1ccc(C(CCl)(CCl)c2ccc(OC)c(C)c2)cc1C
inactive: [1] 90 % of control | [2] 100 % of control | [3] 96 % of control | [4] 94 % of control | [5] 86 % of control | [6] 92 % of control

ClCCN(CCCl)c1ccc(/C=N/N2CCN(/N=C/c3ccc(N(CCCl)CCCl)cc3)CC2)cc1
inactive: [7] 97 % of control | [8] 92 % of control | [9] 106 % of control

Cc1ccc(C2CCCCC2OS(C)(=O)=O)cc1 (centres undefined)
inactive: [7] 95 % of control | [8] 92 % of control | [9] 97 % of control

CCN(CC)c1cccc(OC(=O)Nc2ccc(SC)cc2)c1
inactive: [1] 95 % of control | [3] 103 % of control | [5] 97 % of control

c1cc(-c2ncc[nH]2)ccn1
inactive: dose: 100.0 mg/kg/injection, schedule: Q01DX001 (ip), vehicle: saline with Tween-80 100 % of control

O=C(O)c1cc(C(F)(F)F)nc2c1ccc1ccccc12
inactive: [10] 98 % of control | [11] 98 % of control

NC(=O)N/N=C1\CC2CC1C1CCCC21 (centres undefined)
inactive: dose: 100.0 mg/kg/injection, schedule: Q04DX003 (ip), vehicle: other 104 % of control | dose: 200.0 mg/kg/injection, schedule: Q04DX003 (ip), vehicle: other 98 % of control | dose: 400.0 mg/kg/injection, schedule: Q04DX003 (ip), vehicle: other 94 % of control

COc1ccc(C(=O)CC(=O)CC(=O)c2ccccc2)cc1
inactive: [12] 117 % of control | [13] 107 % of control | [14] 102 % of control | [15] 96 % of control | [16] 96 % of control | [17] 105 % of control

Nc1nc(N)c(N=Nc2ccccc2S(=O)(=O)O)c(N)n1
inactive: [18] 105 % of control | [19] 89 % of control | [20] 96 % of control

CCC(CO)NC(=O)C(O)C(O)C(O)C(O)CO (centres undefined)
inactive: [21] 94 % of control | [22] 97 % of control | [23] 94 % of control

CCOC(=O)C(=O)N(CC)CC
inactive: dose: 100.0 mg/kg/injection, schedule: Q04DX002 (ip), vehicle: Klucel (hydroxypropylcellulose) (HPC) 98 % of control | dose: 200.0 mg/kg/injection, schedule: Q04DX002 (ip), vehicle: Klucel (hydroxypropylcellulose) (HPC) 98 % of control | dose: 400.0 mg/kg/injection, schedule: Q04DX002 (ip), vehicle: Klucel (hydroxypropylcellulose) (HPC) 88 % of control

O=c1cc(CNC23CC4CC(CC(C4)C2)C3)[nH]c(=O)[nH]1
inactive: [2] 96 % of control | [4] 96 % of control | [6] 89 % of control

O=C1CC(=O)Nc2ccccc2N1
inactive: [24] 86 % of control | dose: 100.0 mg/kg/injection, schedule: Q01DX009 (ip), vehicle: saline 86 % of control | [21] 98 % of control | dose: 200.0 mg/kg/injection, schedule: Q01DX009 (ip), vehicle: saline 96 % of control | [22] 101 % of control | [23] 101 % of control

O=[N+]([O-])c1cc(C(F)(F)F)ccc1Oc1ccccc1
inactive: [2] 95 % of control | [4] 110 % of control | [6] 101 % of control

CCOc1nc(N)nc(N)c1-c1ccc(Cl)cc1
inactive: [25] 92 % of control | [26] 96 % of control

CCCC1=NNC(=O)C1
inactive: [7] 100 % of control | [8] 100 % of control | [9] 96 % of control

Cc1cc(C)c2cc3cccc[n+]3cc2c1
inactive: dose: 2.0 mg/kg/injection, schedule: Q01DX015 (ip), vehicle: saline 100 % of control | dose: 4.0 mg/kg/injection, schedule: Q01DX001 (ip), vehicle: carboxymethylcellulose (CMC) 105 % of control | dose: 4.0 mg/kg/injection, schedule: Q01DX015 (ip), vehicle: saline 107 % of control | dose: 8.0 mg/kg/injection, schedule: Q01DX001 (ip), vehicle: carboxymethylcellulose (CMC) 107 % of control | dose: 16.0 mg/kg/injection, schedule: Q01DX001 (ip), vehicle: carboxymethylcellulose (CMC) 107 % of control

Cn1c(N)c(N=Nc2ccc(S(N)(=O)=O)cc2)c(=O)n(C)c1=O
inactive: [18] 94 % of control | [19] 102 % of control | [20] 96 % of control

Nc1c(C(=O)O)ccc2c1C(=O)c1ccccc1C2=O
inactive: dose: 25.0 mg/kg/injection, schedule: Q04DX003 (ip), vehicle: gum acacia 103 % of control | dose: 50.0 mg/kg/injection, schedule: Q04DX003 (ip), vehicle: gum acacia 100 % of control | dose: 100.0 mg/kg/injection, schedule: Q04DX003 (ip), vehicle: gum acacia 103 % of control and 108 % of control | dose: 200.0 mg/kg/injection, schedule: Q04DX003 (ip), vehicle: gum acacia 97 % of control

CCCCCCCCCN(C)C(C)=O
inactive: dose: 75.0 mg/kg/injection, schedule: Q01DX001 (ip), vehicle: carboxymethylcellulose (CMC) 94 % of control | dose: 150.0 mg/kg/injection, schedule: Q01DX001 (ip), vehicle: carboxymethylcellulose (CMC) 91 % of control | dose: 300.0 mg/kg/injection, schedule: Q01DX001 (ip), vehicle: carboxymethylcellulose (CMC) 96 % of control

c1ccc2c(c1)C(=NN=C1c3ccccc3-c3ccccc31)c1ccccc1-2
inactive: [7] 97 % of control | [12] 93 % of control | [8] 94 % of control | [14] 104 % of control | [9] 94 % of control | [16] 96 % of control

CCOC(=O)CCc1cc(C)[nH]c1C(=O)OCC
inactive: dose: 100.0 mg/kg/injection, schedule: Q01DX001 (ip), vehicle: Klucel (hydroxypropylcellulose) (HPC) 93 % of control | [13] 101 % of control | dose: 200.0 mg/kg/injection, schedule: Q01DX001 (ip), vehicle: Klucel (hydroxypropylcellulose) (HPC) 93 % of control | [15] 96 % of control | dose: 400.0 mg/kg/injection, schedule: Q01DX001 (ip), vehicle: Klucel (hydroxypropylcellulose) (HPC) 101 % of control | [17] 98 % of control

O=[N+]([O-])c1ccccc1N=Nc1c(O)[nH]c2c(Cl)ccc(Cl)c12
inactive: [10] 89 % of control | [11] 93 % of control

CCCC(=O)Nc1cc([N+](=O)[O-])ccc1O
inactive: dose: 50.0 mg/kg/injection, schedule: Q01DX009 (ip), vehicle: saline with Tween-80 97 % of control and 106 % of control | [25] 93 % of control and 95 % of control | [26] 95 % of control and 97 % of control | dose: 400.0 mg/kg/injection, schedule: Q04DX002 (ip), vehicle: saline with Tween-80 95 % of control and 92 % of control

CCNC(=O)NCC
inactive: [27] 109 % of control | [18] 101 % of control | [19] 103 % of control | [20] 97 % of control

CC1CC(C)(C)[N+](C)=C(CC(C)(C)O)O1 (centres undefined)
inactive: [21] 113 % of control

OC1CSC1
inactive: [27] 89 % of control | [18] 96 % of control | [1] 96 % of control | [2] 98 % of control | [19] 100 % of control | [3] 98 % of control | [4] 98 % of control | [5] 96 % of control | [6] 102 % of control

CCOC(=O)C(C(C)=O)C(c1cccc(O)c1)C(C(C)=O)C(=O)O (centres undefined)
inactive: dose: 25.6 mg/kg/injection, schedule: Q04DX002 (ip), vehicle: saline with Tween-80 95 % of control | dose: 37.5 mg/kg/injection, schedule: Q01DX009 (ip), vehicle: saline with Tween-80 100 % of control | dose: 64.0 mg/kg/injection, schedule: Q04DX002 (ip), vehicle: saline with Tween-80 91 % of control | dose: 75.0 mg/kg/injection, schedule: Q01DX009 (ip), vehicle: saline with Tween-80 91 % of control | [2] 90 % of control | dose: 150.0 mg/kg/injection, schedule: Q01DX009 (ip), vehicle: saline with Tween-80 94 % of control | dose: 160.0 mg/kg/injection, schedule: Q04DX002 (ip), vehicle: saline with Tween-80 87 % of control | [4] 90 % of control

CN(C)C1CCc2ccc3ccccc3c2C1=O (centres undefined)
inactive: [24] 88 % of control
